Assay [1] deals with patient-derived AML cells. Briefly: Viability of patient-derived AML cells. The format is cell-based, human. The settings on record: 10 μM; 2, 4 or 6 days in culture. The source says:
Because SHP2 activity is critical for ERK activation, we used phospho-ERK1/2 (p-ERK1/2) as a more direct readout of SHP2 inhibitor efficacy. […] This p-ERK rebound in MOLM-13 cells treated with RMC-4550 is reminiscent of previously reported data from human hepatoma Hep3B cells treated with SHP099 ([34]). We also tested the effects of SBI-4668 or RMC-4550 on two patient-derived AML samples (Fig. 4F).
Patient-derived AML cells were obtained from Carol Burian and Dr James Mason (Scripps MD Anderson Center) under approved Institutional Review Board protocol 13-6180. […] Final peripheral blood mononuclear cells were resuspended in Bambanker serum-free freezing medium (Wako Pure Chemical Industries, Ltd) and stored frozen before cell viability was assessed as described later.
Viability of AML and esophageal carcinoma cells was assessed using the ATP-depletion assay CellTiter-Glo (Promega). Cells were harvested at 1 × 10^6/ml to 2 × 10^6 cells/ml with cell numbers determined by trypan blue using the Countess Cell counter (Thermo Scientific) and resuspended in culture media. […] Luminescence was read on a Tecan Spark Multimode Microplate Reader, and data were analyzed using GraphPad Prism software.

The test system of assay [2] is MDA-MB-468 TNBC cells. The assay can be described thus: 11-day colony formation assay, MDA-MB-468. The format is cell-based. The settings on record: 5, 10 or 20 μM, 11 days. The method, then:
(§1) Inhibition of SHP2 has been reported to inhibit the growth of cancer cells including Kasumi-1 acute myeloid leukemia (AML) and KYSE-520 esophageal cancer cells ([30]). […] Thus, we treated two TNBC cell lines, BT-549 and MDA-MB-468, with SBI-4668 or the SHP2 allosteric inhibitor SHP099 at various concentrations and determined cell viability after 72 h, compared with the vehicle control (Fig. 4C). […] Next, we performed an 11-day colony formation assay with TNBC cells treated with SBI-4668 or SHP099 at 5, 10, or 20 μM (Fig. 4D).
MDA-MB-468 and […] triple-negative breast cancer cells were maintained in Dulbecco's modified Eagle's medium + 10% FBS supplemented with 1× penicillin–streptomycin/L-glutamine (Omega Scientific). About 1500 cells (in 300 μl) were seeded per well of a standard 24-well tissue culture plate (Falcon) and allowed to adhere for 24 h, before the addition of compound(s) as described. After a further 96 h, media were replaced with fresh media containing the same test compounds and concentrations. After 11 days, media were removed, and cells stained with 0.5% crystal violet (in 20% methanol; Sigma) for 20 min with agitation at 80 rpm. Stain was removed, and plates with stained cells were washed by being submerged in excess deionized water and allowed to air dry overnight before imaging.

The subject of assay [3] is MDA-MB-468 TNBC cells. Briefly: TNBC cell viability (CellTiter-Glo), MDA-MB-468. Conditions: Homo sapiens, MDA-MB-468; 72 h per text; 5 days per legend and method. The format is cell-based. The method, then: as §1
Triple-negative breast cancer cell viability was assessed using the ATP-depletion assay CellTiter-Glo. Briefly, 2500 cells in 25 μl media (RPMI + 10% FBS + 1× penicillin–streptomycin [Omega Scientific]) were seeded per well of a 384-well tissue culture–treated plate (Greiner). About 25 nl of 1000× test compound were added using a Labcyte Echo acoustic dispenser, and the cells were incubated for 5 days before addition of 10 μl of CellTiter-Glo reagent as described by the manufacturer. Luminescence was detected on a BioTek Synergy 2 microplate reader, and the values normalized to those of vehicle (DMSO)-treated controls before being plotted using GraphPad Prism.
(In general: Cellular ATP, detected with luciferase, serves as a proxy for viable cell number.)

Structures are written as SMILES.

By IC50 is commonly meant the concentration needed to halve the response being measured.

On to `O=C(Nc1ccccc1)c1cc(-c2ccc(/C=C3\Sc4ccccc4C3=O)o2)ccc1O` [SBI-4668, (Z)-2-Hydroxy-5-(5-((3-oxobenzo[b]thiophen-2(3H)-ylidene)methyl)furan-2-yl)-N-phenylbenzamide], for which the “growth of two patient-derived AML samples” value in assay [1] is “inhibited the growth of both AML patient samples”. In addition, the “colony formation, MDA-MB-468” value in the assay with MDA-MB-468 TNBC cells [2] is given as “undetectable”. In addition, the IC50 in the assay on MDA-MB-468 TNBC cells [3] was determined as 2500 nM.

The record behind these values is article PMC8760490, “Discovery of novel furanylbenzamide inhibitors that target oncogenic tyrosine phosphatase SHP2 in leukemia cells” (The Journal of Biological Chemistry, 2021).
